The values that follow come from PubChem BioAssay AID208 (DTP/NCI, 2004).

The assay has as its system HT29 intrarenal xenograft, nude mice, tumor weight change. Briefly: NCI In Vivo Anticancer Drug Screen. Data for tumor model HT29;CX-1 Human Adenocarcinoma (MER+) (intrarenal inoculation) in NU/NU BALB/C (nude) mice. The note with it: endpoint: mean tumor weight change, higher = larger tumour. The protocol:
The antitumor activity of compounds was measured in mice bearing transplantable tumors. Survival or tumor size were measured and the results are expressed as the measurement made in the treated group (T) divided by the measurement made in the vehicle treated control group (C). The tumor model used in this assay is HT29;CX-1 Human Adenocarcinoma (MER+) (intrarenal inoculation) in NU/NU BALB/C (nude) mice

Setting [1] is: dose: 150.0 mg/kg/injection, schedule: Q04DX004 (sc), vehicle: saline with Tween-80.
[2] abbreviates: dose: 300.0 mg/kg/injection, schedule: Q04DX004 (sc), vehicle: saline with Tween-80.
[3] abbreviates: dose: 600.0 mg/kg/injection, schedule: Q04DX004 (sc), vehicle: saline with Tween-80.
[4] abbreviates: dose: 1200.0 mg/kg/injection, schedule: Q04DX004 (sc), vehicle: saline with Tween-80.
The mark [5] stands for this setting: dose: 150.0 mg/kg/injection, schedule: Q04DX004 (sc), vehicle: Klucel (hydroxypropylcellulose) (HPC).
Setting [6] is: dose: 600.0 mg/kg/injection, schedule: Q04DX004 (sc), vehicle: Klucel (hydroxypropylcellulose) (HPC).

Where “and” joins values, the source holds several entries; their conditions need not be identical. Equal entries are not always repeated. Results filed as inconclusive are left out.

As for `CCC1=C[C@H]2CN(CCc3c([nH]c4ccccc34)[C@@](C(=O)OC)(c3cc4c(cc3OC)N(C)[C@H]3[C@@](O)(C(=O)OC)[C@H](OC(C)=O)[C@]5(CC)C=CCN6CC[C@]43[C@@H]65)C2)C1`, the T/C was 116 % of control (dose: 0.38 mg/kg/injection, schedule: Q04DX004 (sc), vehicle: water); 159 % of control (dose: 0.75 mg/kg/injection, schedule: Q04DX004 (sc), vehicle: water); 118 % of control (dose: 1.5 mg/kg/injection, schedule: Q04DX004 (sc), vehicle: water); 40 % of control (dose: 3.0 mg/kg/injection, schedule: Q04DX004 (sc), vehicle: water); 100 % of control (dose: 6.0 mg/kg/injection, schedule: Q04DX004 (sc), vehicle: water); 66 % of control (dose: 12.0 mg/kg/injection, schedule: Q04DX004 (sc), vehicle: water).
In the case of `CCC1=C[C@H]2CN(CCc3c([nH]c4ccccc34)[C@@](C(=O)OC)(c3cc4c(cc3OC)N(C)[C@H]3[C@@](O)(C(=O)NC)[C@H](OC(C)=O)[C@]5(CC)C=CCN6CC[C@]43[C@@H]65)C2)C1`, the T/C runs as follows: (dose: 2.0 mg/kg/injection, schedule: Q04DX004 (sc), vehicle: water) -17 % of control and 8 % of control; (dose: 4.0 mg/kg/injection, schedule: Q04DX004 (sc), vehicle: water) -99 % of control.
As for `O=[N+]([O-])c1ccc(N2CCOCC2)c2c1no[n+]2[O-]`, the T/C runs as follows: (dose: 75.0 mg/kg/injection, schedule: Q04DX004 (sc), vehicle: saline with Tween-80) 88 % of control; under setting [1], 116 % of control; under setting [2], 156 % of control; under setting [3], 83 % of control.
Turning to `C=CC(C)NC(=S)NNC(=S)NC` (stereo not given), the T/C runs as follows: (dose: 150.0 mg/kg/injection, schedule: Q04DX004 (sc), vehicle: saline + alcohol) 91 % of control; (dose: 300.0 mg/kg/injection, schedule: Q04DX004 (sc), vehicle: saline + alcohol) 44 % of control; (dose: 600.0 mg/kg/injection, schedule: Q04DX004 (sc), vehicle: saline + alcohol) 97 % of control; (dose: 1200.0 mg/kg/injection, schedule: Q04DX004 (sc), vehicle: saline + alcohol) 74 % of control.
On to `O=C1CCC(=O)N1CO`, for which the T/C is 66 % of control (dose: 150.0 mg/kg/injection, schedule: Q04DX004 (sc), vehicle: saline); 80 % of control (dose: 300.0 mg/kg/injection, schedule: Q04DX004 (sc), vehicle: saline); 74 % of control (dose: 600.0 mg/kg/injection, schedule: Q04DX004 (sc), vehicle: saline).
For the compound `CN(C)P(=O)(Oc1ccccc1)N(C)C`, under setting [4], the T/C was 78 % of control.
As for `CC12CCC3C(CCC4CC(OC(=O)Cc5ccc(N(CCCl)CCCl)cc5)CCC43C)C1CCC(=O)N2` (stereo not given), the T/C reads like this: (dose: 12.5 mg/kg/injection, schedule: Q04DX004 (sc), vehicle: saline with Tween-80) 99 % of control; (dose: 25.0 mg/kg/injection, schedule: Q04DX004 (sc), vehicle: saline with Tween-80) 109 % of control; (dose: 50.0 mg/kg/injection, schedule: Q04DX004 (sc), vehicle: saline with Tween-80) 77 % of control; (dose: 100.0 mg/kg/injection, schedule: Q04DX004 (sc), vehicle: saline with Tween-80) 38 % of control.
For the compound `COc1ccc2c(ccc3oc([N+](=O)[O-])cc32)c1`, the T/C is, setting by setting: under setting [5], 113 % of control; under setting [6], 76 % of control.
In the case of `CC[C@@]1(O)C(=O)OCc2c1cc1n(c2=O)Cc2cc3ccccc3nc2-1`, the T/C by setting is: (dose: 0.75 mg/kg/injection, schedule: Q04DX004 (sc), vehicle: saline with Tween-80) 75 % of control; (dose: 3.0 mg/kg/injection, schedule: Q04DX004 (sc), vehicle: saline with Tween-80) 49 % of control; (dose: 6.0 mg/kg/injection, schedule: Q04DX004 (sc), vehicle: saline with Tween-80) 48 % of control; (dose: 32.0 mg/kg/injection, schedule: Q04DX004 (sc), vehicle: saline with Tween-80) 8 % of control.
For the compound `CCCCc1ccc2nc(NC(=O)OC)[nH]c2c1`, the T/C was 108 % of control (dose: 25.0 mg/kg/injection, schedule: Q01DX010 (sc), vehicle: saline with Tween-80); 90 % of control (dose: 100.0 mg/kg/injection, schedule: Q01DX010 (sc), vehicle: saline with Tween-80); 94 % of control (dose: 200.0 mg/kg/injection, schedule: Q01DX010 (sc), vehicle: saline with Tween-80).
Take `O=S(CCCl)CCCl`: the T/C is 98 % of control (dose: 25.0 mg/kg/injection, schedule: Q04DX004 (sc), vehicle: Klucel (hydroxypropylcellulose) (HPC)) and 64 % of control (dose: 50.0 mg/kg/injection, schedule: Q04DX004 (sc), vehicle: Klucel (hydroxypropylcellulose) (HPC)).
Regarding `O=Cc1ccc(C=O)c(Cl)c1`, the T/C was 92 % of control under setting [5]; 81 % of control (dose: 300.0 mg/kg/injection, schedule: Q04DX004 (sc), vehicle: Klucel (hydroxypropylcellulose) (HPC)); 109 % of control under setting [6]; 114 % of control (dose: 1200.0 mg/kg/injection, schedule: Q04DX004 (sc), vehicle: Klucel (hydroxypropylcellulose) (HPC)).
Turning to `C[C@]12CCC(=O)C(O)=C1CC[C@@H]1[C@@H]2CC[C@]2(C)C(=O)CC[C@@H]12`, the T/C by setting is: (dose: 150.0 mg/kg/injection, schedule: Q04DX004 (ip), vehicle: Klucel (hydroxypropylcellulose) (HPC)) 84 % of control; (dose: 300.0 mg/kg/injection, schedule: Q04DX004 (ip), vehicle: Klucel (hydroxypropylcellulose) (HPC)) 94 % of control; (dose: 600.0 mg/kg/injection, schedule: Q04DX004 (ip), vehicle: Klucel (hydroxypropylcellulose) (HPC)) 67 % of control; (dose: 1200.0 mg/kg/injection, schedule: Q04DX004 (ip), vehicle: Klucel (hydroxypropylcellulose) (HPC)) 84 % of control.
Consider `N#CC(C#N)=C/C=C/c1cccc([N+](=O)[O-])c1`, for which the T/C was 81 % of control (dose: 25.0 mg/kg/injection, schedule: Q01DX010 (sc), vehicle: Klucel (hydroxypropylcellulose) (HPC)); 90 % of control (dose: 50.0 mg/kg/injection, schedule: Q01DX010 (sc), vehicle: Klucel (hydroxypropylcellulose) (HPC)); 76 % of control (dose: 100.0 mg/kg/injection, schedule: Q01DX010 (sc), vehicle: Klucel (hydroxypropylcellulose) (HPC)); 63 % of control (dose: 200.0 mg/kg/injection, schedule: Q01DX010 (sc), vehicle: Klucel (hydroxypropylcellulose) (HPC)).
For the compound `COC1/C=C/C=C(/C)Cc2cc(O)c(Cl)c(c2)N(C)C(=O)CC(OC(=O)C(C)C)C2(C)OC2C(C)C2CC1(O)NC(=O)O2` (stereo not given), the T/C is, setting by setting: (dose: 2.0 mg/kg/injection, schedule: Q04DX004 (sc), vehicle: saline + alcohol) 82 % of control; (dose: 4.0 mg/kg/injection, schedule: Q04DX004 (sc), vehicle: saline + alcohol) 98 % of control; (dose: 8.0 mg/kg/injection, schedule: Q04DX004 (sc), vehicle: saline + alcohol) 72 % of control.
Consider `CC[C@@]1(O)C[C@H](OC2CC(N(C)C)C(OC3CC(O)C(OC4CCC(=O)C(C)O4)C(C)O3)C(C)O2)c2c(cc3c(c2O)C(=O)c2c(O)cccc2C3=O)[C@H]1C(=O)OC` (stereo not given in full), for which the T/C (dose: 1.0 mg/kg/injection, schedule: Q01DX010 (ip), vehicle: water) is 58 % of control and the T/C (dose: 2.0 mg/kg/injection, schedule: Q01DX010 (ip), vehicle: water) was 37 % of control.
As for `CCOC(=O)C1(c2ccccc2)C(=O)Oc2ccccc21` (stereo not given), the T/C is 83 % of control under setting [1], 98 % of control under setting [2], 117 % of control under setting [3] and 80 % of control under setting [4].
Turning to `COc1cc(Cc2nccc3cc(OC)c(OC)cc23)c(C(C)=O)c(OC)c1`, the T/C (dose: 20.0 mg/kg/injection, schedule: Q01DX010 (sc), vehicle: saline) was 109 % of control and the T/C (dose: 80.0 mg/kg/injection, schedule: Q01DX010 (sc), vehicle: saline) was 64 % of control.
Consider `c1ccc2c(c1)[As]=c1ccccc1=[As]2` (stereo not given), for which the T/C by setting is: (dose: 9.38 mg/kg/injection, schedule: Q04DX004 (sc), vehicle: saline) 113 % of control; (dose: 18.72 mg/kg/injection, schedule: Q04DX004 (sc), vehicle: saline) 86 % of control; (dose: 37.5 mg/kg/injection, schedule: Q04DX004 (sc), vehicle: saline) 107 % of control; (dose: 75.0 mg/kg/injection, schedule: Q04DX004 (sc), vehicle: saline) 70 % of control.
For `C[n+]1c(-c2cccc3ccccc23)c2cc(N)ccc2c2ccccc21`, the T/C runs as follows: (dose: 3.0 mg/kg/injection, schedule: Q04DX004 (sc), vehicle: saline) 119 % of control; (dose: 6.0 mg/kg/injection, schedule: Q04DX004 (sc), vehicle: saline) 152 % of control; (dose: 12.0 mg/kg/injection, schedule: Q04DX004 (sc), vehicle: saline) 78 % of control.
